Assay results as given in patent US6800464B2, “Arthrobacter D-carbamoylase and methods of preparing enantiomerically enriched D-amino acids” (Degussa AG, priority 2001, dated 2004).
Where two headings read alike, the source gives them in different places. One block for each molecule: values may come before it.

Experiments:
[1] = biological target: D-carbamoylase from Arthrobacter crystallopoietes DSM 20117 (Crystallibacter crystallopoietes, UniProt A0A1H1C375); assay: Substrate specificity of the purified D-carbamoylase (relative conversion of carbamoyl substrates); format: biochemical; details: for Rel. act. / conversion of substrate (in words): 30° C.; for Rel. act.: 0.1 M potassium phosphate buffer pH 8.0, 20 mM isomer mixture or 10 mM pure isomer, D,L-Carbamoyl-phenylalanine set at 100% (2 U/mg); for conversion of substrate (in words): assay conditions of substrate spectrum, pH 8.0
Procedure: (§1) The homogeneously purified D-carbamoylase with the His-tag and ttg start codon (pMW1 —FIG. 5) was used for characterization of the enzyme obtained in this way. The enzyme was present in 0.1 M KPB pH 8.0.
To determine the substrate spectrum, the enzyme was incubated at a reaction temperature of 30° C. with the particular substrate in the presence of 0.1 M potassium phosphate buffer pH 8.0. To ensure the same concentration of the D-isomer, if the substrate was present as an isomer mixture a concentration of 20 mM was established; if the substrate was present as a pure isomer a concentration of 10 mM was established.

[2] = system: purified D-carbamoylase; assay: Cofactor dependence: inactivation by complexing agents and sulfhydryl reagents, reactivation by metal ions; format: biochemical, Arthrobacter crystallopoietes DSM 20117; details: for inactivation of the enzyme by complexing agent: 10 mM, incubation at 25° C., 8-HQSA: within less than two hours
Procedure: as §1
In order to be able to differentiate the inactivation by the complexing agent from the thermal inactivation, an aliquot of the enzyme solution was co-incubated without 8-HQSA and the activity was monitored with respect to time. It was concluded that to reactivate the enzyme, the 8-HQSA had to be removed from the enzyme by gel filtration, and incubation had to be carried out in the presence of 2 mM metal ions. However, neither Cu^2+, Co^2+, Mn^2+, Mg^2+, Fe^2+ nor Zn^2+ led to a reactivation of the enzyme.

[3] = substrate: NC(=O)N[C@H](Cc1c[nH]c2ccccc12)C(=O)O; assay: Determination of kinetic parameters (Km, vmax) of the D-carbamoylase; format: biochemical, Arthrobacter crystallopoietes DSM 20117; details: other: Michaelis-Menten kinetics, Enzymfit program; pH 8.0
Procedure: as §1
For determination of Vmax and Km, the rate of reaction v was plotted as a function of the substrate concentration. The calculation of the kinetic parameters was carried out via the Enzymfit program (developed at the Institute of Bioprocess Technology, University of Stuttgart). […] The reaction can be described here by Michaelis-Menten kinetics (see equation 1). [formula]

[4] = Determination of the optimum pH of the purified D-carbamoylase; format: biochemical; details: pH range 6.5 to 9.0, DL-C-phenylalanine, 30° C., 100 mM buffers
Procedure: To determine the optimum pH of the purified D-carbamoylase, conversions were carried out at various pH values in a range from 6.5 to 9.0 with DL-C-phenylalanine as the substrate at 30° C. In order to be able to rule out concentration effects, the buffer concentration of all the buffers used (Tris, potassium phosphate and Tris-glycine) was adjusted to a value of 100 mM. The activity maximum of the D-carbamoylase was at pH 8.

Molecule: CSCCC(NC(N)=O)C(=O)O (racemic) [D,L-Carbamoyl-methionine]
Rel. act. [1]: 13%

Molecule: NC(=O)NC(CO)C(=O)O (racemic) [D,L-Carbamoyl-serine]
Rel. act. [1]: 35%

Molecule: CC(C)(C)C(NC(N)=O)C(=O)O (racemic) [D,L-Carbamoyl-tert-leucine]
Rel. act. [1]: 18%

Molecule: CC(C)C(NC(N)=O)C(=O)O (racemic) [D,L-Carbamoyl-valine]
Rel. act. [1]: 31%

inactivation of the D-carbamoylase by sulfhydryl reagents ([2]; 1 mM): complete inactivation
Molecule: O=C(O)c1ccccc1[N+](=O)[O-] [2-nitrobenzoate]

inactivation of the enzyme by complexing agent [2]: compete inhibition
Molecule: O=S(=O)(O)c1ccc(O)c2ncccc12 [8-hydroxyquinolinesulfonic acid]

Molecule: C[C@@H](NC(N)=O)C(=O)O [D-Carbamoyl-alanine]
Rel. act. [1]: 510%
conversion relative to all other substrates ([1]; compared with all other substrates of table 5): at least five times better

Rel. act. [1]: 80%
Molecule: NC(=O)N[C@H](Cc1c[nH]c2ccccc12)C(=O)O [D-Carbamoyl-tryptophan]

inactivation of the enzyme by complexing agent [2]: no inactivation
Molecule: O=C(O)CN(CCN(CC(=O)O)CC(=O)O)CC(=O)O [EDTA]

conversion of substrate (in words) [1]: not converted
Molecule: NC(=O)N[C@@H](Cc1c[nH]c2ccccc12)C(=O)O [L-carbamoyl-tryptophan]

Molecule: CC(C)[C@H](NC(N)=O)C(=O)O [L-carbamoyl-valine]
conversion of substrate (in words) [1]: not converted

Molecule: O=C(O)CI [iodine acetate]
inactivation of the D-carbamoylase by sulfhydryl reagents [2]: complete inactivation

Molecule: O=C(O)c1cc[c]([Hg][Cl])cc1 [para-chloro-mercury benzoate]
inactivation of the D-carbamoylase by sulfhydryl reagents ([2]; 1 mM): complete inactivation

Molecule: β-Ureido-propionate
Rel. act. [1]: 0%
conversion of substrate (in words) [1]: not converted

B1: D-carbamoylase from Arthrobacter crystallopoietes DSM 20117 (Crystallibacter crystallopoietes) (protein)
chain: MAKNLMLAVAQVGGIDSSESRPEVVARLIALLEEAASQGAELVVFPELTLTTFFPRTWFEEGDFEEYFDKSMPNDDVAPLFERAKDLGVGFYLGYAELTSDEKRYNTSILVNKHGDIVGKYRKMHLPGHADNREGLPNQHLEKKYFREGDLGFGVFDFHGVQVGMCLCNDRRWPEVYRSLALQGAELVVLGYNTPDFVPGWQEEPHAKMFTHLLSLQAGAYQNSVFVAAAGKSGFEDGHHMIGGSAVAAPSGEILAKAAGEGDEVVVVKADIDMGKPYKESVFDFAAHRRPDAYGIIAERKGRGAPLPVPFNVND
Km [3]: 7.5 mM
Vmax [3]: 2.4 U/mg

B2: D-carbamoylase: homogeneously purified recombinant D-carbamoylase from Arthrobacter crystallopoietes DSM 20117 (SEQ ID NO: 2) (protein)
chain: B1 chain
modifications: OTHER INFORMATION: … DNA
activity maximum (optimum pH) [4]: 8
